In series [1] the test system is Mycobacterium tuberculosis. In words: Antitubercular activity against Mycobacterium tuberculosis H37Rv assessed as reduction in microbial growth after 7 to 14 days by broth dilution method. Format: functional. The note with it: time 7-14 day. Background: Broth dilution looks for growth in wells or tubes with falling amounts of substance.
The subject of the next series is RAW264.7. As to the kind of experiment: Cytotoxicity against mouse RAW264.7 cells assessed as reduction in cell viability up to 24 hrs by MTT assay. Format: cell-based. The note with it: RAW264.7, 24 h.
Series [2] can be described thus: Selectivity index ratio of IC50 for cytotoxicity against mouse RAW264.7 cells to MIC90 for antitubercular activity against Mycobacterium tuberculosis H37Rv. Format: toxicity, cell-based. To be noted: read-out: Selectivity Index.

For `O=CC#Cc1cnc2ccccc2n1`, the MIC90 in series [1] was 4.55 µM. Moreover, the IC50 in the series with RAW264.7 worked out at 316 µM. Besides, the selectivity ratio in series [2] was 69.5.
Taken in the same sequence, the figures for `O=C(OCC#Cc1cnc2cc([N+](=O)[O-])ccc2n1)c1cccs1` were 2.74 µM, 19.9 µM and 7.24.
The matching figures for `O=[N+]([O-])c1ccc2nc(C#CCO)cnc2c1`: 4.26 µM, 31.2 µM and 7.3.
Taken in the same sequence, the figures for `O=C(OCC#Cc1cnc2ccccc2n1)c1cccs1` were 27 µM, 39 µM and 1.44.
`O=CC#Cc1cnc2cc(Cl)ccc2n1`: the MIC90 in series [1] turned out to be 1.13 µM. The 50% inhibitory concentration (IC50) in the series on RAW264.7 came out at 4.6 µM. For the same molecule, the selectivity ratio in series [2] is 4.1.
As for `CS(=O)(=O)OCC#Cc1cnc2ccccc2n1`, the MIC90 in series [1] came to 6.47 µM. Besides, the IC50 with RAW264.7 is 36.8 µM. Besides, the selectivity ratio in series [2] was 5.7.
Taken in the same sequence, the figures for `O=C(OCC#Cc1cnc2cc([N+](=O)[O-])ccc2n1)c1ccccc1` were 93.8 µM, 248 µM and 2.6.
As for `CO[C@H]1/C=C/O[C@@]2(C)Oc3c(C)c(O)c4c(O)c(c(/C=N/N5CCN(C)CC5)c(O)c4c3C2=O)NC(=O)/C(C)=C\C=C\[C@H](C)[C@H](O)[C@@H](C)[C@@H](O)[C@@H](C)[C@H](OC(C)=O)[C@@H]1C` [RIFAMPIN], the MIC90 in series [1] amounted to 0.01 µM.
Consider `O=C(OCC#Cc1cnc2cc(Cl)ccc2n1)c1ccccc1`, for which the MIC90 in series [1] came to 57.6 µM. Further, the IC50 in the series with RAW264.7 was found to be 82.3 µM. For the same molecule, in series [2], the selectivity ratio was determined as 1.43.
Taken in the same sequence, the figures for `OCC#Cc1cnc2ccccc2n1` were 52.7 µM, 43.7 µM and 0.83.
Taken in the same sequence, the figures for `CC(=O)OCC#Cc1cnc2cc([N+](=O)[O-])ccc2n1` were 1.8 µM, 13.2 µM and 7.3.
Taken in the same sequence, the figures for `O=C(OCC#Cc1cnc2cc(Cl)ccc2n1)c1cccs1` were 11.2 µM, 11.3 µM and 1.
With `CS(=O)(=O)OCC#Cc1cnc2cc(Cl)ccc2n1`, the MIC90 in series [1] turned out to be 54.5 µM.
Consider `O=C(OCC#Cc1cnc2ccccc2n1)c1ccccc1`, for which the MIC90 in series [1] amounted to 16.2 µM. Also, the half-inhibitory concentration (IC50) with RAW264.7 came to 55.6 µM. Moreover, the selectivity ratio in series [2] was 3.4.
Taken in the same sequence, the figures for `CS(=O)(=O)OCC#Cc1cnc2cc([N+](=O)[O-])ccc2n1` were 1.59 µM, 13.5 µM and 8.5.
The matching figures for `CC(=O)OCC#Cc1cnc2ccccc2n1`: 18.1 µM, 47.7 µM and 2.64.
Taken in the same sequence, the figures for `OCC#Cc1cnc2cc(Cl)ccc2n1` were 15.9 µM, 35.3 µM and 2.22.
`CC(=O)OCC#Cc1cnc2cc(Cl)ccc2n1`: the MIC90 in series [1] came out at 16.5 µM. The IC50 with RAW264.7 was 20.2 µM. The selectivity ratio in series [2] is 1.22.

As usually defined, the MIC90 is an inhibitory concentration at the 90% level, which refers to growth in some studies and to a panel of isolates in others. For orientation: IC50 means the point on the concentration scale where inhibition reaches its midpoint.

These data come from ChEMBL document CHEMBL4715892, “Synthesis of novel quinoxaline-alkynyl derivatives and their anti-Mycobacterium tuberculosis activity” (Bioorg Med Chem Lett, 2021).
